The target of one experiment is T1, TRPV4 (Homo sapiens, UniProt Q9HBA0).
T1 construct: endogenous in cells; host or cells: HTM cells, NHF fibroblasts, NHKC keratinocytes, Lowe syndrome patient fibroblasts and keratinocytes
The experiment is described as follows: Ca2+ imaging, Fura-2 F340/380 ratio after TRPV4 agonist. In kind it is cell-based. Also on record: TRPV4-induced calcium flux, ratio of F340/380: dose or concentration left out as unconfirmed. The procedure: Flow-induced Ca^2+ signals were examined in the presence and absence of cilia in HTM cells. To remove primary cilia, 2 mM aqueous chlorohydrate (Sigma, St. Louis) was added for 48 hours. Prior to flow experiments, cells were washed three times with PBS, and fresh medium was added for 24 hours. The Fura-2 loaded HTM cells were subjected to laminar flow rates as indicated. Single-cell analysis of the Ca^2+ signals (ratio 340/380 nm) of the same experiment was obtained. Intracellular Ca^2+ changes were monitored by ratiometric imaging of Fura-2 AM fluorescence in the HTM cells. HTM cells were loaded with Fura-2 AM for 1 hour at 37° C. in PBS with 40 μM fura-2 AM, 0.33 mM pyruvate, 0.901 mM Ca^2+, 0.5 mM Mg^2+, 5.5 mM glucose, and 0.1% BSA. The Fura-2 AM-loaded HTM cells were washed in PBS and were mounted in the chamber. Ca^2+ imaging experiments were performed using a monochromator-based TILL PHOTONICS imaging system, which was attached to an inverted ZEISS microscope equipped (×2.5 objective) with a back-illuminated ANDOR CCD camera. Fura-2 AM was alternately excited at 345 nm and 380 nm and the emitted light was collected using a 510-nm long-pass filter. The TILLVISION software (TILL PHOTONICS) was used to acquire all fluorescence imaging experiments and to perform the analysis of images. Images were acquired every 2 seconds. The background fluorescence was subtracted and the intracellular Ca^2+ concentration ([Ca^2+]i) was calculated using the equation: [Ca^2+]i=Kd×[(R−Rmin)/(Rmax−R)]×[Fmax(380)/Fmin(380)](R is the fluorescence ratio, Rmax is the ratio at saturation calcium concentration, Rmin is the ratio at zero calcium in the medium, Fmin(380) is the fluorescence at 380 nm at zero Ca^2+ concentration in the medium, and Fmax(380) is the fluorescence at 380 nm at saturation Ca^2+ concentration) (Touw et al., Am. J. Physiol. Gastro. Liver Physiology 2012, 302(1):G66-76).
For calcium flow experiments, HTM cells and NHF cells were first incubated in 3% BSA in PBS and stained with Fura2 dye for 1 hour. Ca^2+ flux was induced by laminar flow gradient (16 μl/s) over the cell surface, which bends cilia, followed by 10 mM KCl. Cells were imaged for calcium during flow. Calcium flux was also measured by F340/380 ratio in HTM cells and NHF cells after treatment with the 0.1 μM TRPV4 agonist GSK1016790A. Results presented represent calcium mobilization in three independent experiments.
HTM cells treated, with or without pressure, were further evaluated to determine their response to TRPV4 agonist. HTM cells were serum-starved for 48 hours to induce ciliogenesis, followed by treatment with 0 or 50 mmHg for 3 hours. Cells were loaded with Fura-2 AM dye for 1 hour, followed with […] TRPV4 agonist GSK1016790A.
OCRL is required for TRPV4-mediated calcium signalling in HTM cells. HTM cells were additionally treated with OCRL siRNA or scrambled control siRNA, with or without wild-type OCRL or OCRL-D499A rescue. 0.1 μM TRPV4 agonist GSK1016790A treatment was performed and calcium mobilization by F340/380 (value X 1000) was measured and shown.
Additionally, a Lowe syndrome patient's keratinocytes were isolated and assayed for their response to TRPV4 treatment. NHKC or Lowe keratinocytes were serum-starved, loaded with Fura-2 AM and then treated with 0.1 μM TRPV4 agonist GSK1016790A. F340/380 ratio (value X 1000) was determined.

In a further experiment the test system is C57BL/6 WT mice. The experiment is described as follows: Intraocular pressure in C57BL/6 WT mice, 4 days of treatment. In kind it is in vivo, mouse. The following applies: nine-week old C57BL/6 WT mice, systemic, daily over 4 days, 24 hours after treatment; decrease from 12.4. The procedure:
(§1) lntraocular Pressure (TOP) was measured with the TONOLAB tonometer TV02 (Helsinki, Finland) with rats under topical anesthesia. IOP was measured using six valid rebound measurements of the device from the eye, where the mean of the middle five readings was taken for one summary measurement. A single set of readings was collected with the best reproducibility indicator during the IOP measurements.
This finding was confirmed in wild-type C5BL/6 mice treated with systemic TRPV4 agonist, antagonist, or sham control, daily over 4 days. Nine-week old C57BL/6 WT mice were treated with sham, TRPV/4 agonist GSK 1016790A or antagonist HC 067047 for 4 days. IOP was measured using a Tonolab tonometer 24 hours after treatment. As shown in FIG. 12D article, a decrease in IOP from 12.4 to 10.3 mmHg was seen.

A further experiment relates to wpk−/− rats. The experiment is described as follows: Intraocular pressure in wpk−/− rats (Tonolab tonometer). The following applies: 17-day-old wpk−/− rats, systemic, once per day for 8 days, agonist 50 ng/g, measured 24 hours after treatment. The format is in vivo, rat. The procedure: All animal experiments followed the guidelines of the ARVO Statement for the Use of Animals in Ophthalmic and Vision Research and were approved by the Institutional Animal Care and Use Committee of Indiana University School of Medicine. Wpk rats, a polycystic kidney disease model, were housed under a 12-hour light/dark cycle with free access to water and food (Smith et al., Nat. Genet. 2006, 38(2):191-196). For […], 50 mg/ml sodium pentobarbital was injected.
as §1
Based on the results presented above, the functional consequences of activating TRPV4 on eye pressure were therefore assessed in the wpk rat model. The wpk rat is a well-established model for studying ciliopathy, as these animals develop hydrocephalus that responds to cilia-based therapy.
8-day old wpk^−/− rats were treated with sham, TRPV4 agonist (50 ng/g, GSK 1016790A), or antagonist (HC 067047) once per day for 8 days. […]

Another experiment relates to HTM cells. The experiment is described as follows: Pressure-induced TNFα, TGFβ1 and Gli1 mRNA in serum-starved HTM cells (RT-PCR). In kind it is cell-based, human. The following applies: 50 mmHg for 3 hours. The procedure: Total RNA was extracted using the RNAEASY® kit (Qiagen). Purified RNA was quantitated with the NANODROP® 2000 (Thermo Fisher Scientific, Lafayette, Colo.). Reverse transcription of total RNA was done using SUPERSCRIPT cDNA synthesis kit (Invitrogen) with random hexamers. Quantitative RT-PCR was performed using the RQ and ΔΔCt method on a Step One Real-Time PCR machine (Bio-Rad Laboratories, Hercules, Calif.). Each assay was performed in triplicate with Power SYBR green MasterMix (SA Biosciences, Frederick, Md.).
To analyze the cellular changes in the TM cells, a hydrostatic pressure chamber was developed similar to that of Mandel et al. (Invest. Ophthalmol. Vis. Sci. 2010, 51(6):3129-3138). The cells were grown in 60 mm polycarbonate dishes sealed to attach to a plastic column filled with 400 mL DMEM/F12 media with or without serum for cilia induction. The column was temperature controlled at 37° C. in humidified chamber. […]
HTM cells were serum-starved for 48 hours and treated with saline, saline plus 50 mmHg pressure, chlorohydrate, and chlorohydrate plus 50 mmHg pressure for 3 hours. Levels of mRNA of TNFα, TGFβ1 and Gli1 were then measured. […] Serum-starved HTM cells were also placed under 50 mmHg pressure for 0, 10, 20, 40, 60 and 80 minutes and analyzed for expression of TNFα and IL-33. […]

T1 sequence (Q9HBA0 whole entry): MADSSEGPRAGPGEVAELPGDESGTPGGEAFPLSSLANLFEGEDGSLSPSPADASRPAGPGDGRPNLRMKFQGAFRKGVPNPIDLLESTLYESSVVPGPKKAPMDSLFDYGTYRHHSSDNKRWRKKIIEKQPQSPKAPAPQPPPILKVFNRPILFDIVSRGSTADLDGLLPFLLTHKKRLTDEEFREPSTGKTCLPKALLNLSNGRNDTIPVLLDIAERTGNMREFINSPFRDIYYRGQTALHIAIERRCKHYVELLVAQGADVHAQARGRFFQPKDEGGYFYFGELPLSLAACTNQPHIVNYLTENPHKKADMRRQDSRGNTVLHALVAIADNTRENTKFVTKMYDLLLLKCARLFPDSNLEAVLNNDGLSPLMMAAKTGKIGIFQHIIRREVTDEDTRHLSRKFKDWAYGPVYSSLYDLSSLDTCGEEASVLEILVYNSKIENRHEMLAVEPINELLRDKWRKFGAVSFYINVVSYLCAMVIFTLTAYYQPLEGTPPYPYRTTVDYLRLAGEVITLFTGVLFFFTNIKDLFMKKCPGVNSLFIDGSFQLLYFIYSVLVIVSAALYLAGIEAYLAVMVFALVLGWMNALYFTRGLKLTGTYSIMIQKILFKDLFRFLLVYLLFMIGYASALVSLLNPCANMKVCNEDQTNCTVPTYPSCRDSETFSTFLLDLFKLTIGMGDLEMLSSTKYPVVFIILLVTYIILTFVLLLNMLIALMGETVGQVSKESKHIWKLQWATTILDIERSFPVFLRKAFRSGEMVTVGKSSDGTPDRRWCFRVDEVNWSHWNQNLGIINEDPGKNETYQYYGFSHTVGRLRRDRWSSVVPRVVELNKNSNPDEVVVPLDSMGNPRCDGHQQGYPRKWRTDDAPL

As to `CC(C)C[C@H](NC(=O)c1cc2ccccc2s1)C(=O)N1CCN(C(=O)[C@H](CO)NS(=O)(=O)c2ccc(Cl)cc2Cl)CC1` [GSK1016790A, N-((1S)-1-{[4-((2S)-2-{[(2,4-dichlorophenyl)sulfonyl]amino}-3-hydroxypropanoyl)-1-piperazinyl]carbonyl}-3-methylbutyl)-1-benzothiophene-2-carboxamide], the “Calcium mobilization by F340/380” value at TRPV4 (HTM cells treated with OCRL siRNA, 0.1 μM agonist, rescued by wild-type OCRL, not by D499A mutant) was “decrease in F340/F380 fura-2 signaling”. Besides, the Calcium mobilization result at TRPV4 (Lowe patient fibroblasts (Lowe 1, Lowe 2)) is reported as “failed to elicit calcium mobilization”. Moreover, on TRPV4 (Lowe patient keratinocytes compared with normal keratinocytes (NHKC), 0.1 μM agonist), the “Calcium mobilization, F340/380 ratio” value is listed as “failed to elicit calcium mobilization”. The “Calcium flux as measured by F340/380 ratio” value on TRPV4 (NHF cells, 0.1 μM agonist) is reported as “elicited”. The “TRPV4-induced calcium flux, ratio of F340/380” value at TRPV4 (ciliated HTM cells, 50 mmHg hydrostatic pressure for 3 hours vs 0 mmHg) is “significant decrease in TRPV4-induced calcium flux”. The IOP with C57BL/6 WT mice worked out at 10.3 mmHg. Besides, in the experiment with wpk−/− rats, the Intraocular pressure result is listed as “significantly reduced”.

For the compound `Cc1c(C(=O)Nc2cccc(C(F)(F)F)c2)cc(-c2ccccc2)n1CCCN1CCOCC1` [HC 067047], the Intraocular pressure result in the experiment with wpk−/− rats is listed as “not”.

Consider `OC(O)C(Cl)(Cl)Cl` [chlorohydrate], for which, in the experiment with HTM cells, the “Elevation of gene transcription (TNFα, TGFβ1, Gli1 mRNA) in response to pressure” value was “reduced the elevation of gene transcription in response to pressure”.
